Measured values: patent US20260294874A1, “COMPOSITIONS COMPRISING MODULATORS OF RIBONUCLEOPROTEIN GRANULE FORMATION AND DISSOLUTION AND METHODS OF USE THEREOF” (University of Virginia Patent Foundation, priority 2023, published 2026)
Entries after “also recorded” stand apart in the source; their conditions may differ.

Key:
Type in all cases: cell-based
[1] = tested on: stress granules (G3BP1 foci) in HeLa cells; test: Immunofluorescence phenotypic screen for stress granules (α-G3BP1) in stressed HeLa cells; conditions: 2 h
Description: SuTEx compound treatments. Prior to treatments, cells were washed twice with warm phosphate-buffered saline (PBS) and exchanged with serum-free DMEM (supplemented with 1% L-glutamine) for at least 30 minutes at 37° C. with 5% CO2. Compounds were then added as 1000×DMSO stocks (10 μL for 10 cm dishes and 3 μL for 6-well dishes), plates were mixed gently, and cells were incubated for two hours. All compounds were thoroughly vortexed and sonicated for five minutes prior to addition to ensure complete solvation. For microscopy experiments, cultures were seeded at 150,000 cells in 3 mL of DMEM in 6-well THERMO SCIENTIFIC™ BIOLITE™ brand microwell plates (Catalog No. 12556004; Thermo Fisher Scientific Inc., Waltham, Massachusetts. United States of America). For collection, media was aspirated, and cells were washed once with cold PBS before scraping from plates. Cells were centrifuged at 500×g at 4° C. for 5 minutes and supernatant was removed. Cell pellets were resuspended in cold PBS (1 mL) and centrifuged at 1,400×g at 4° C. for 3 minutes. Supernatant was again removed, and pellets were then snap-frozen in liquid nitrogen and stored at −80° C. until needed.
Immunofluorescence. Immunofluorescence (IF) of HEK293T cells was performed as previously described in Ciancone et al., 2022. HeLa cells were seeded at 9.0×10^4 in a 24-well plate with 12-mm glass coverslips. The next day, the cells were treated with 25 μM SuTEx probe for 2 hours in DMEM medium without FBS. The cells were then treated with 75 μM NaAsO2 for 30 minutes and fixed with 3% paraformaldehyde in PBS for 15 minutes at room temperature (RT) and washed with PBS twice. The fixed cells were permeabilized with PBST (0.1% Triton X-100) for 15 minutes at room temperature and blocked with 5% goat serum in PBST for 30 minutes at RT. The cells were incubated with anti-G3BP1 antibody H-10 (Catalog No. sc-365338 at 1:200 dilution; Santa Cruz Biotechnology, Inc., Dallas, Texas, United States of America) for 2 hours at RT and washed with PBST (0.1% Tween-20) for 5 minutes three times. Next, cells were incubated with goat anti-mouse Alexa 594 antibody (Catalog No. 115-585-003 at 1:800 dilution; Jackson ImmunoResearch, West Grove, Pennsylvania, United States of America) for 30 minutes at RT. The cells were washed twice with PBST, stained with Hoechst 33342 (Catalog No. H3570 at […]; Thermo Fischer Scientific) in PBST for 5 minutes, and washed with PBS twice for 5 minutes. The coverslips were mounted in PROLONG™ Gold AntiFade Mountant (Catalog No. P36930, Thermo Fisher Scientific) and imaged using NIS Elements AR software and a Nikon Eclipse Ti microscope equipped with a ×100 objective and CMOS camera. […] A CellProfiler pipeline was developed to quantify the number of stress granules under each condition. Briefly, cells were recognized as blue^+ (nuclei) red^+ (G3BP1) objects, and the red^+ granules that meet the shape and size threshold were identified and counted. Cells on the border of linages were excluded from the analysis for more accurate quantification.
We used immunofluorescence (IF) detection for phenotypic screening of SuTEx compound activity on stress-induced PB and SG levels in cells (FIG. 1B). PBs were induced through glucose deprivation of HEK293T cells and detected by immunofluorescence with anti-enhancer of mRNA-decapping protein 4 (EDC4) as previously described (Kedersha & Anderson, 2007; Ciancone et al., 2022) (~4 vs 2 PBs/cell in −glucose and +glucose conditions, respectively; FIG. 8). EDC4 is an established PB marker for mammalian cells and is important for PB formation (Kedersha & Anderson, 2007; Luo et al., 2018). SGs were induced in HeLa cells by [COMPOUND LEFT OUT] treatments and detected by fluorescent staining with anti-Ras GTPase-activating protein-binding protein 1 (G3BP1) antibody (75 μM [COMPOUND LEFT OUT], 30 min; FIG. 9). G3BP1 foci have been used in previous IF studies to identify SGs in cells (Kedersha & Anderson, 2007). […]

HNRPK Y72 = molecular target: T1, HNRPK Y72 (Homo sapiens, UniProt P61978); test: Competitive ABPP SILAC LC-MS/MS chemical proteomics, HNRPK Y72; conditions: DMSO (light)/ligand (heavy)
T1 construct: liganded site Y72
Description: (§1) Preparation of SILAC proteomes for LC-MS/MS analysis. SILAC cell proteomes were fractionated to collect the supernatant and normalized to 2.3 mg/mL in PBS. ‘Heavy’ and ‘light’ proteomes were aliquoted (427 μL) and probe-modified proteins were conjugated to desthiobiotin-PEG-3-azide using copper-catalyze azide-alkyne cycloaddition, trypsinized into peptides using Trypsin/Lys-C Mix (Catalog No. V5071; Promega Corporation, Madison, Wisconsin, United States of America), enriched using PIERCE™ Avidin Agarose brand beads (Catalog No. 20219; Thermo Fisher Scientific Inc., Waltham, Massachusetts. United States of America), and prepared for nano-electrospray ionization-LC-MS/MS analysis as previously described in Hahm et al., 2020.
(§2) Data Analysis—Chemical Proteomics. Identification and analysis of peptides and proteins using LC-MS was accomplished using bioinformatics software and quality control parameter protocols as previously described in Hahm et al., 2020.
(§3) We performed quantitative liquid-chromatography tandem mass spectrometry (LC-MS/MS) chemical proteomic studies to identify the target protein and binding site(s) of SuTEx fragments with RNP granule modulating activity. […]
(§4) We detected ~8,700 probe-modified sites (Tyr and Lys) in our aggregate HeLa and HEK293T chemical proteomic analyses. […]

HSPB1 K123 = molecular target: T2, HSPB1 K123 (Homo sapiens, UniProt P04792); test: Competitive ABPP SILAC LC-MS/MS chemical proteomics, HSPB1 K123; conditions: 25 μM, 2 h; HHS-465 100 μM; DMSO (light)/ligand (heavy)
T2 construct: endogenous in cells; host or cells: SILAC cells (HeLa and HEK293T are named; HeLa inferred for HSPB1/EKT179, as SG modulators were profiled in HeLa)
T2 sequence (P04792 whole entry): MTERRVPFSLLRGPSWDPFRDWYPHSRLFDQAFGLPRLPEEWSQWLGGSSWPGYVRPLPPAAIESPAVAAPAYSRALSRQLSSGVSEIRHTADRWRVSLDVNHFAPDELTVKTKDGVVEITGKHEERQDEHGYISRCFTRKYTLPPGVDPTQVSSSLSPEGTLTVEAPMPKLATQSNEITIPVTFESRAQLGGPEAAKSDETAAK
Description: as §1, §2, §3, §4

EDC3 Y475 = molecular target: T3, EDC3 Y475 (Homo sapiens, UniProt Q96F86); test: Competitive ABPP SILAC LC-MS/MS chemical proteomics, EDC3 Y475; conditions: glucose-deprived HEK293T cells, 25 μM, 2 h
T3 sequence (Q96F86 1-508): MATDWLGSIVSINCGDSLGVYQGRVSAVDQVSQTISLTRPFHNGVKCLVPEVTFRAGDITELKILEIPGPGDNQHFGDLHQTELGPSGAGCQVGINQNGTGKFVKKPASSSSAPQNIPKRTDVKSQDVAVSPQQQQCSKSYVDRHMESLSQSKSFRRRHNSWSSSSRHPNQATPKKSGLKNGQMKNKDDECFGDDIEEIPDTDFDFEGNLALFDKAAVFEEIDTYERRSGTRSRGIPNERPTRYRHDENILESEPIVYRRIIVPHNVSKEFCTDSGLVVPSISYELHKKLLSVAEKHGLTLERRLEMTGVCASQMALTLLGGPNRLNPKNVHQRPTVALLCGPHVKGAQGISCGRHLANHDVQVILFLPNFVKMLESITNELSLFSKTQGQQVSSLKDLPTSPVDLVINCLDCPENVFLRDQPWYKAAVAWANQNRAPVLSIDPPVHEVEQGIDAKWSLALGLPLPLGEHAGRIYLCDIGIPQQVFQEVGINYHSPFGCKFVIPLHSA
Description: as §1, §2
We performed quantitative liquid-chromatography tandem mass spectrometry (LC-MS/MS) chemical proteomic studies to identify the target protein and binding site(s) of SuTEx fragments with RNP granule modulating activity. […] SILAC light and heavy cells (HEK293T and HeLa) were treated with experimental conditions used for phenotypic screening including the SuTEx ligand pretreatment (25 μM, 2 h) followed by PB (glucose-deprivation, 15 min) and SG induction (75 μM [COMPOUND LEFT OUT], 30 min). Afterwards, cells were lysed, soluble proteomes treated with HHS-465 SuTEx probe (100 μM, 1 h), a global Tyr/Lys-reactive probe used previously for RNP granule investigations (Ciancone et al., 2022), and samples processed to probe-modified peptides for LC-MS/MS analysis as previously reported (Huang et al., 2021), shown in FIG. 10.
as §4

recombinant EDC3 = molecular target: T4, recombinant EDC3 (Homo sapiens, UniProt Q96F86); test: Competitive gel-based ABPP, HHS-465 probe labeling of recombinant EDC3 in HEK293T cells; conditions: 25 μM, 2 h (FIG. 4F); 0.1-100 μM for concentration dependence (FIG. 4D); HHS-465 100 μM, 1 h, RT
T4 construct: FLAG; expressed in transfected cells; host or cells: HEK293T
T4 sequence (Q96F86 1-508): T3 sequence (Q96F86 1-508)
Excerpt: FIGS. 4A-4F. Discovery of a SuTEx ligand for the hyper-reactive EDC3 Y475 site. (FIG. 4A) Overlap of liganded sites from SuTEx PB modulators with reported RNA granule induction-sensitive lysine and tyrosine sites (RISKYs; Ciancone et al., 2022). The five overlapping sites were further compared to previously reported hyper-RISKY sites (Ciancone et al., 2022) resulting in the identification of the tyrosine-475 (Y475) site on EDC3. (FIG. 4B) Representative immunofluorescence images depicting decreased PBs and increased SGs in AHL-030-treated cells under stress conditions. EKT235 is shown as a negative control. See FIGS. 8 and 9 for additional details. (FIG. 4C) Representative MS1 extracted ion chromatograms (EICs) showing EDC3 Y475 (i.e., amino acid 2 of the peptide sequence […]; SEQ ID NO: 1, which corresponds to amino acids 474-500 of the human enhancer of mRNA-decapping protein 3 isoform 1 polypeptide of GENBANK® Accession No. NP_001135915.1) is liganded by AHL-030 but not EKT235 [SILAC ratio or SR>2 for DMSO vehicle (light, red)/SuTEx fragment ligand (heavy, blue) treatment conditions]. Enrichment (HHS-465/DMSO) and 1:1 (HHS-465/HHS-465) controls are shown. SRs are calculated as the integrated area under the curve ratio of light-to-heavy peptide. Data are representative of n=2-3 biologically independent replicates. […] EDC3-expressing HEK293T cells were pretreated with varying concentrations of AHL-030 (0.1-100 μM, 2 hours) followed by lysis and probe labeling of soluble proteomes with HHS-465 (100 μM, 1 h, RT). The in situ IC50 for EDC3 probe labeling inhibition by AHL-030 was estimated to be ~6 μM. […] Data shown are mean±SEM and representative of n=3 biologically independent replicates. […] Western blots comparing recombinant expression of EDC3 (α-FLAG) and loading controls (α-GAPDH) are shown. Data are representative of n=2 biologically independent replicates.
Among the candidate PB-modulating SuTEx compounds, we focused on AHL-030 because of its PB-inhibitory, SG-enhancing activity in stressed cells and ability to ligand the EDC3 Y475 site (SR >2; FIGS. 4B and 4C). Importantly, we identified a restricted number of reproducibly liganded sites (7 in total) in addition to EDC3 Y475 in chemoproteomic profiling studies of AHL-030 (FIG. 12). We further confirmed AHL-030 as an EDC3 ligand using competitive activity-based protein profiling (ABPP; Grams & Hsu, 2022). Recombinant EDC3-expressing HEK293T cells were treated with a panel of RNP granule modulators including AHL-030 and the negative control compound EKT235 to evaluate structure-activity relationships (SAR, 25 μM compounds, 2 h). Cells were lysed and soluble proteomes labeled with HHS-465 (100 μM, 1 h, RT) followed by CuAAC with rhodamine-azide, SDS-PAGE and in-gel fluorescence scanning. […] Using the in vitro IC50, we calculated the lipophilic efficiency (LipE) of AHL-030 to be ~7, which falls in the range of acceptable lipophilicity in relation to potency (Leeson & Springthorpe, 2007).

## O=S(=O)(c1ccc(C(F)(F)F)cc1)n1cc(-c2ccc(F)cc2F)nn1 [EKT166, 4-(2,4-Difluorophenyl)-1-((4-(trifluo•·omethyl)phenyl)sulfonyl)-1H-1,2,3-triazole]
[1]; 25 μM
  effect on SGs (in words): enriched activity; also recorded: inhibited SGs
[1]; Homo sapiens, read-out: reduction/inhibition of SGs/cell
  inhibition at 25 µM: > 70%
HNRPK Y72
  SILAC ratio (SR), HNRPK Y72: > 2

## O=S(=O)(C1CC1)n1cc(-c2cccc(F)c2)nn1 [EKT179, 1-(Cyclopropylsulfonyl)-4-(3-fluorophenyl)-1H-1,2,3-triazole]
HSPB1 K123
  SILAC ratio (SR), HSPB1 K123: > 2

## O=S(=O)(C1CC1)n1cc(-c2ccc(-c3ccccc3)cc2)nn1 [EKT235, 4-([1,1′-Biphenyl]-4-yl)-1-(cyclopropylsulfonyl)-1H-1,2,3-triazole]
EDC3 Y475
  liganding of EDC3 Y475 (in words): not
Recombinant EDC3
  inhibition of HHS-465 probe labeling of recombinant EDC3 (in words): largely inactive
